Data taken from patent US7998940B2, “Aptamers to von Willebrand factor and their use as thrombotic disease therapeutics” (Archemix Corp., priority 2004, dated 2011).
Oligonucleotides are written 5' to 3', each unit as a sugar letter and its base; * is a phosphorothioate linkage, no mark a phosphodiester; rarer units and linkages stand in square brackets, end groups in braces. Plain capitals give the bases only. [invdT] = inverted (3'-3') thymidine; d = 2'-deoxy (DNA); m = 2'-O-methyl

Test system: full length human vWF (SEQ ID NO 7)
Test: dot blot KD determination and extent of binding, full length human vWF;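 also: dot blot binding of aptamers to full length human vWF across a protein titration, incubated 30 minutes at room temperature in 1x DPBS with BSA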
Details: for % binding @ 100 nM vWF / Kd: Phase 1 modification; for % binding @ 100 nM vWF: extent of aptamer binding at 100 nM full length human vWF; for Kd: full length human vWF, 8 point protein titration, read-out: KD

Row | Substance | % binding @ 100 nM vWF [%] | Kd (dot blot) [nM] | binding to human vWF (in words, dot blot)
1 | ARC1115: ARC1029 with PEG spacer replaced with a short oligonucleotide sequence, dTdTdC (DNA GGCGTGCAGTGCCTTCGGCCGTGCGGTGCCTCCGTCACGCC; unmodified DNA) | 36 | 2 | shown to bind
2 | ARC1194: ARC1172 with one residue replaced by 2'-O methyl residue (DNA mGdGdCdGdTdGdCdAdGdTdGdCdCdTdTdCdGdGdCdCdGdTdGdCdGdGdTdGdCdCdTdCdCdGdTdCdAdCdGdCdC[invdT]; aptamer) | 46 | 3 | –
3 | ARC1195: ARC1172 with one residue replaced by 2'-O methyl residue (DNA dGmGdCdGdTdGdCdAdGdTdGdCdCdTdTdCdGdGdCdCdGdTdGdCdGdGdTdGdCdCdTdCdCdGdTdCdAdCdGdCdC[invdT]; aptamer) | 55 | 1 | –
4 | ARC1196: ARC1172 with one residue replaced by 2'-O methyl residue (DNA dGdGmCdGdTdGdCdAdGdTdGdCdCdTdTdCdGdGdCdCdGdTdGdCdGdGdTdGdCdCdTdCdCdGdTdCdAdCdGdCdC[invdT]; aptamer) | 46 | 2 | –
5 | ARC1197: ARC1172 with one residue replaced by 2'-O methyl residue (DNA dGdGdCmGdTdGdCdAdGdTdGdCdCdTdTdCdGdGdCdCdGdTdGdCdGdGdTdGdCdCdTdCdCdGdTdCdAdCdGdCdC[invdT]; aptamer) | 46 | 2 | –
6 | ARC1198: ARC1172 with one residue replaced by 2'-O methyl residue (DNA dGdGdCdGmUdGdCdAdGdTdGdCdCdTdTdCdGdGdCdCdGdTdGdCdGdGdTdGdCdCdTdCdCdGdTdCdAdCdGdCdC[invdT]; aptamer) | 50 | 0.9 | –
7 | ARC1199: ARC1172 with one residue replaced by 2'-O methyl residue (DNA dGdGdCdGdTmGdCdAdGdTdGdCdCdTdTdCdGdGdCdCdGdTdGdCdGdGdTdGdCdCdTdCdCdGdTdCdAdCdGdCdC[invdT]; aptamer) | 28 | 19 | –
8 | ARC1200: ARC1172 with one residue replaced by 2'-O methyl residue (DNA dGdGdCdGdTdGmCdAdGdTdGdCdCdTdTdCdGdGdCdCdGdTdGdCdGdGdTdGdCdCdTdCdCdGdTdCdAdCdGdCdC[invdT]; aptamer) | 25 | 5 | –
9 | ARC1201: ARC1172 with one residue replaced by 2'-O methyl residue (DNA dGdGdCdGdTdGdCmAdGdTdGdCdCdTdTdCdGdGdCdCdGdTdGdCdGdGdTdGdCdCdTdCdCdGdTdCdAdCdGdCdC[invdT]; aptamer) | 6 | 0.9 | –
10 | ARC1202: ARC1172 with one residue replaced by 2'-O methyl residue (DNA dGdGdCdGdTdGdCdAmGdTdGdCdCdTdTdCdGdGdCdCdGdTdGdCdGdGdTdGdCdCdTdCdCdGdTdCdAdCdGdCdC[invdT]; aptamer) | 56 | 0.4 | –
11 | ARC1203: ARC1172 with one residue replaced by 2'-O methyl residue (DNA dGdGdCdGdTdGdCdAdGmUdGdCdCdTdTdCdGdGdCdCdGdTdGdCdGdGdTdGdCdCdTdCdCdGdTdCdAdCdGdCdC[invdT]; aptamer) | 40 | 3 | –
12 | ARC1204: ARC1172 with one residue replaced by 2'-O methyl residue (DNA dGdGdCdGdTdGdCdAdGdTmGdCdCdTdTdCdGdGdCdCdGdTdGdCdGdGdTdGdCdCdTdCdCdGdTdCdAdCdGdCdC[invdT]; aptamer) | 45 | 2 | –
13 | ARC1205: ARC1172 with one residue replaced by 2'-O methyl residue (DNA dGdGdCdGdTdGdCdAdGdTdGmCdCdTdTdCdGdGdCdCdGdTdGdCdGdGdTdGdCdCdTdCdCdGdTdCdAdCdGdCdC[invdT]; aptamer) | 50 | 1 | –
14 | ARC1206: ARC1172 with one residue replaced by 2'-O methyl residue (DNA dGdGdCdGdTdGdCdAdGdTdGdCmCdTdTdCdGdGdCdCdGdTdGdCdGdGdTdGdCdCdTdCdCdGdTdCdAdCdGdCdC[invdT]; aptamer) | 50 | 2 | –
15 | ARC1207: ARC1172 with one residue replaced by 2'-O methyl residue (DNA dGdGdCdGdTdGdCdAdGdTdGdCdCmUdTdCdGdGdCdCdGdTdGdCdGdGdTdGdCdCdTdCdCdGdTdCdAdCdGdCdC[invdT]; aptamer) | 54 | 2 | –
16 | ARC1208: ARC1172 with one residue replaced by 2'-O methyl residue (DNA dGdGdCdGdTdGdCdAdGdTdGdCdCdTmUdCdGdGdCdCdGdTdGdCdGdGdTdGdCdCdTdCdCdGdTdCdAdCdGdCdC[invdT]; aptamer) | 45 | 2 | –
17 | ARC1209: ARC1172 with one residue replaced by 2'-O methyl residue (DNA dGdGdCdGdTdGdCdAdGdTdGdCdCdTdTmCdGdGdCdCdGdTdGdCdGdGdTdGdCdCdTdCdCdGdTdCdAdCdGdCdC[invdT]; aptamer) | 44 | 2 | –
18 | ARC1210: ARC1172 with one residue replaced by 2'-O methyl residue (DNA dGdGdCdGdTdGdCdAdGdTdGdCdCdTdTdCmGdGdCdCdGdTdGdCdGdGdTdGdCdCdTdCdCdGdTdCdAdCdGdCdC[invdT]; aptamer) | 49 | 2 | –
19 | ARC1211: ARC1172 with one residue replaced by 2'-O methyl residue (DNA dGdGdCdGdTdGdCdAdGdTdGdCdCdTdTdCdGmGdCdCdGdTdGdCdGdGdTdGdCdCdTdCdCdGdTdCdAdCdGdCdC[invdT]; aptamer) | 47 | 2 | –
20 | ARC1212: ARC1172 with one residue replaced by 2'-O methyl residue (DNA dGdGdCdGdTdGdCdAdGdTdGdCdCdTdTdCdGdGmCdCdGdTdGdCdGdGdTdGdCdCdTdCdCdGdTdCdAdCdGdCdC[invdT]; aptamer) | 49 | 2 | –
21 | ARC1213: ARC1172 with one residue replaced by 2'-O methyl residue (DNA dGdGdCdGdTdGdCdAdGdTdGdCdCdTdTdCdGdGdCmCdGdTdGdCdGdGdTdGdCdCdTdCdCdGdTdCdAdCdGdCdC[invdT]; aptamer) | 43 | 6 | –
22 | ARC1214: ARC1172 with one residue replaced by 2'-O methyl residue (DNA dGdGdCdGdTdGdCdAdGdTdGdCdCdTdTdCdGdGdCdCmGdTdGdCdGdGdTdGdCdCdTdCdCdGdTdCdAdCdGdCdC[invdT]; aptamer) | 39 | 3 | –
23 | ARC1215: ARC1172 with one residue replaced by 2'-O methyl residue (DNA dGdGdCdGdTdGdCdAdGdTdGdCdCdTdTdCdGdGdCdCdGmUdGdCdGdGdTdGdCdCdTdCdCdGdTdCdAdCdGdCdC[invdT]; aptamer) | 2 | 3 | –
24 | ARC1216: ARC1172 with one residue replaced by 2'-O methyl residue (DNA dGdGdCdGdTdGdCdAdGdTdGdCdCdTdTdCdGdGdCdCdGdTmGdCdGdGdTdGdCdCdTdCdCdGdTdCdAdCdGdCdC[invdT]; aptamer) | 40 | 0.6 | –
25 | ARC1217: ARC1172 with one residue replaced by 2'-O methyl residue (DNA dGdGdCdGdTdGdCdAdGdTdGdCdCdTdTdCdGdGdCdCdGdTdGmCdGdGdTdGdCdCdTdCdCdGdTdCdAdCdGdCdC[invdT]; aptamer) | 18 | 14 | –
26 | ARC1218: ARC1172 with one residue replaced by 2'-O methyl residue (DNA dGdGdCdGdTdGdCdAdGdTdGdCdCdTdTdCdGdGdCdCdGdTdGdCmGdGdTdGdCdCdTdCdCdGdTdCdAdCdGdCdC[invdT]; aptamer) | 2 | 32 | –
27 | ARC1219: ARC1172 with one residue replaced by 2'-O methyl residue (DNA dGdGdCdGdTdGdCdAdGdTdGdCdCdTdTdCdGdGdCdCdGdTdGdCdGmGdTdGdCdCdTdCdCdGdTdCdAdCdGdCdC[invdT]; aptamer) | 33 | 3 | –
28 | ARC1220: ARC1172 with one residue replaced by 2'-O methyl residue (dGdGdCdGdTdGdCdAdGdTdGdCdCdTdTdCdGdGdCdCdGdTdGdCdGdGmUdGdCdCdTdCdCdGdTdCdAdCdGdCdC[invdT]; aptamer) | 17 | 11 | –
29 | ARC1221: ARC1172 with one residue replaced by 2'-O methyl residue (dGdGdCdGdTdGdCdAdGdTdGdCdCdTdTdCdGdGdCdCdGdTdGdCdGdGdTmGdCdCdTdCdCdGdTdCdAdCdGdCdC[invdT]; aptamer) | 43 | 1 | –
